Laboratory results reported in ChEMBL document CHEMBL4828722, “The synthesis and bioactivity of pyrrolo[2,3-d]pyrimidine derivatives as tyrosine kinase inhibitors for NSCLC cells with EGFR mutations” (Eur J Med Chem, 2021).
Calls of active or inactive are those of the source. The rule behind the calls is not given here.

What was measured:
HCC827 [1] = assay: Induction of cell cycle arrest in human HCC827 cells harboring EGFR del E746-A750 mutant assessed as accumulation of cells in G0/G1 phase at 1 uM measured after 18 hrs by PI/RNaseA staining based flow cytometry analysis (Rvb= 49.60%); type: functional
BEAS-2B = assay: Cytotoxicity against human BEAS-2B cells assessed as reduction in cell viability measured after 48 hrs by CCK8 assay; type: cell-based
A549 [2] = assay: Cytotoxicity against human A549 cells harboring wild type EGFR assessed as reduction in cell viability measured after 48 hrs by CCK8 assay; type: functional, cell-based; details: A549, 48 h
HCC827 [3] = assay: Cytotoxicity against human HCC827 cells harboring EGFR del E746-A750 mutant assessed as reduction in cell viability measured after 48 hrs by CCK8 assay; type: functional, cell-based; details: HCC827, 48 h
A549 [4] = assay: Induction of cell cycle arrest in human A549 cells harboring wild type EGFR assessed as accumulation of cells in S phase at 0.5 uM measured after 18 hrs by PI/RNaseA staining based flow cytometry analysis (Rvb= 33.26%); type: functional
A549 [5] = assay: Induction of cell cycle arrest in human A549 cells harboring wild type EGFR assessed as accumulation of cells in G0/G1 phase at 1 uM measured after 18 hrs by PI/RNaseA staining based flow cytometry analysis (Rvb= 58.27%); type: functional
A549 [6] = assay: Induction of cell cycle arrest in human A549 cells harboring wild type EGFR assessed as accumulation of cells in G2/M phase at 1 uM measured after 18 hrs by PI/RNaseA staining based flow cytometry analysis (Rvb= 8.47%); type: functional
NCI-H1975 [7] = assay: Induction of cell cycle arrest in human NCI-H1975 cells harboring EGFR L858R/T790M mutant assessed as accumulation of cells in G0/G1 phase at 0.5 uM measured after 18 hrs by PI/RNaseA staining based flow cytometry analysis (Rvb= 42.69%); type: functional
NCI-H1975 [8] = assay: Induction of cell cycle arrest in human NCI-H1975 cells harboring EGFR L858R/T790M mutant assessed as accumulation of cells in G0/G1 phase at 5 uM measured after 18 hrs by PI/RNaseA staining based flow cytometry analysis (Rvb= 42.69%); type: functional
NCI-H1975 [9] = assay: Induction of cell cycle arrest in human NCI-H1975 cells harboring EGFR L858R/T790M mutant assessed as accumulation of cells in S phase at 5 uM measured after 18 hrs by PI/RNaseA staining based flow cytometry analysis (Rvb= 39.78%); type: functional
NCI-H1975 [10] = assay: Induction of cell cycle arrest in human NCI-H1975 cells harboring EGFR L858R/T790M mutant assessed as accumulation of cells in G2/M phase at 5 uM measured after 18 hrs by PI/RNaseA staining based flow cytometry analysis (Rvb= 17.33%); type: functional
HCC827 [11] = assay: Induction of cell cycle arrest in human HCC827 cells harboring EGFR del E746-A750 mutant assessed as accumulation of cells in G0/G1 phase at 0.5 uM measured after 18 hrs by PI/RNaseA staining based flow cytometry analysis (Rvb= 49.60%); type: functional
HCC827 [12] = assay: Induction of cell cycle arrest in human HCC827 cells harboring EGFR del E746-A750 mutant assessed as accumulation of cells in G2/M phase at 1 uM measured after 18 hrs by PI/RNaseA staining based flow cytometry analysis (Rvb= 16.78%); type: functional
HCC827 [13] = assay: Induction of cell cycle arrest in human HCC827 cells harboring EGFR del E746-A750 mutant assessed as accumulation of cells in S phase at 5 uM measured after 18 hrs by PI/RNaseA staining based flow cytometry analysis (Rvb= 33.62%); type: functional
HCC827 [14] = assay: Induction of cell cycle arrest in human HCC827 cells harboring EGFR del E746-A750 mutant assessed as accumulation of cells in G2/M phase at 5 uM measured after 18 hrs by PI/RNaseA staining based flow cytometry analysis (Rvb= 16.78%); type: functional
NCI-H1975 [15] = assay: Induction of apoptosis in human NCI-H1975 cells harboring EGFR L858R/T790M mutant assessed as live cells at 0.5 uM measured after 18 hrs by Annexin V-FITC/PI staining based flow cytometry analysis (Rvb= 89.4%); type: functional
NCI-H1975 [16] = assay: Induction of apoptosis in human NCI-H1975 cells harboring EGFR L858R/T790M mutant assessed as early apoptotic cells at 0.5 uM measured after 18 hrs by Annexin V-FITC/PI staining based flow cytometry analysis (Rvb= […]); type: functional
HCC827 [17] = assay: Induction of apoptosis in human HCC827 cells harboring EGFR del E746-A750 mutant assessed as live cells at 0.5 uM measured after 18 hrs by Annexin V-FITC/PI staining based flow cytometry analysis (Rvb= 87.5%); type: functional
HCC827 [18] = assay: Induction of apoptosis in human HCC827 cells harboring EGFR del E746-A750 mutant assessed as total apoptotic cells at 0.5 uM measured after 18 hrs by Annexin V-FITC/PI staining based flow cytometry analysis (Rvb= 10.8%); type: functional
HCC827 [19] = assay: Induction of apoptosis in human HCC827 cells harboring EGFR del E746-A750 mutant assessed as early apoptotic cells at 5 uM measured after 18 hrs by Annexin V-FITC/PI staining based flow cytometry analysis (Rvb= 9.6%); type: functional
HCC827 [20] = assay: Induction of apoptosis in human HCC827 cells harboring EGFR del E746-A750 mutant assessed as dead cells at 5 uM measured after 18 hrs by Annexin V-FITC/PI staining based flow cytometry analysis (Rvb= […]); type: functional
HCC827 [21] = assay: Induction of apoptosis in human HCC827 cells harboring EGFR del E746-A750 mutant assessed as total apoptotic cells at 5 uM measured after 18 hrs by Annexin V-FITC/PI staining based flow cytometry analysis (Rvb= 10.8%); type: functional
[22] = target: Mitogen-activated protein kinase; ERK1/ERK2 (Homo sapiens) (UniProt P27361+P28482); assay: Inhibition of ERK1/2 phosphorylation at Thr202/Tyr204 residue in human HBE cells at 5 uM incubated for 2 hrs by immunoblotting analysis; type: cell-based
Mitogen-activated protein kinase; ERK1/ERK2 (Homo sapiens), sequence (P27361 whole entry, looked up): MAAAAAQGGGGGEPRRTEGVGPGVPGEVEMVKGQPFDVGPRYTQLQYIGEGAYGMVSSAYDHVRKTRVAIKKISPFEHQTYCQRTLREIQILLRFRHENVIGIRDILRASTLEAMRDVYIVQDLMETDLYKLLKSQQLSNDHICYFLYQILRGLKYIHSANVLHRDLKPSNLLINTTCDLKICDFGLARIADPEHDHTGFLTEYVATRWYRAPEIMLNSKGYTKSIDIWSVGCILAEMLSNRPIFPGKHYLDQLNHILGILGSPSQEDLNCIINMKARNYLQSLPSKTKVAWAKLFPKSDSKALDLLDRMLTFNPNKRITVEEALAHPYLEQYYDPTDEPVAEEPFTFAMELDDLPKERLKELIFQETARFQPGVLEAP
Mitogen-activated protein kinase; ERK1/ERK2 (Homo sapiens), sequence (P28482 whole entry, looked up): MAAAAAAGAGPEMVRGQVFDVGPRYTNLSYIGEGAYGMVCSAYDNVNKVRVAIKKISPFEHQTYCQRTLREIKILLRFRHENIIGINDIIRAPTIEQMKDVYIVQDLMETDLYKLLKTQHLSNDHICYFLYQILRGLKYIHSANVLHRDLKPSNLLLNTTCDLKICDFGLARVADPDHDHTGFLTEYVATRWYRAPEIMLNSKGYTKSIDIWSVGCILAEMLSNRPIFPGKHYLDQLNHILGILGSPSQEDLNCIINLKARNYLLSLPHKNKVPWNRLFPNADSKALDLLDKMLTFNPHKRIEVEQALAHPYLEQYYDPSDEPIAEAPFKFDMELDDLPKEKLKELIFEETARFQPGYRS

[23] = target: Signal transducer and activator of transcription 3 (Homo sapiens) (UniProt P40763); assay: Inhibition of STAT3 phosphorylation at Ser727 residue in human HBE cells at 5 uM incubated for 2 hrs by immunoblotting analysis; type: cell-based
Signal transducer and activator of transcription 3 (Homo sapiens), sequence (P40763 whole entry): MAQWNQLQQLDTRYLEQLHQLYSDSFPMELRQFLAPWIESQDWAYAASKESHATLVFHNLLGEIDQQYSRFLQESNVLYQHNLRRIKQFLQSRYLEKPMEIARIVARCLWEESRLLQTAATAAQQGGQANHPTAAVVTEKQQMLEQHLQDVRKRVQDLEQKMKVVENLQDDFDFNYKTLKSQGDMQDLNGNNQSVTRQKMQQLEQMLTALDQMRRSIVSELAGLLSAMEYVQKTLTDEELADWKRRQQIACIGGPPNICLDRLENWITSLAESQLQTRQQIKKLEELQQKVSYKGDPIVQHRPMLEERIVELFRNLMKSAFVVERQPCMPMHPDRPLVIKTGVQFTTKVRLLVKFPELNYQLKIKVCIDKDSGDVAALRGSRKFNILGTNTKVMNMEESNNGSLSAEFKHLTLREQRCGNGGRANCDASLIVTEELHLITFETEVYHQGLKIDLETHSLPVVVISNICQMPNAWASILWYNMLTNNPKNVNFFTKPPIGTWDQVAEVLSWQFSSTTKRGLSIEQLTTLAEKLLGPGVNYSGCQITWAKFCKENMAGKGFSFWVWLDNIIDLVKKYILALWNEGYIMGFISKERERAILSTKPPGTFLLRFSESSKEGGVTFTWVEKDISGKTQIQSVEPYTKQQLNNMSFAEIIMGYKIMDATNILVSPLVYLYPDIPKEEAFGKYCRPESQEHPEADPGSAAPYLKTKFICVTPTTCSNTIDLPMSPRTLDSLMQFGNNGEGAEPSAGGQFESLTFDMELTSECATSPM

NCI-H1975 [24] = assay: Inhibition of AKT phosphorylation in human NCI-H1975 cells at 0.1 to 5 uM incubated for 2 hrs by immunoblotting analysis; type: cell-based; details: dose 0.1-5 µM
[25] = target: Ribosomal protein S6 kinase beta-1 (Homo sapiens) (UniProt P23443); assay: Inhibition of P70S6K phosphorylation in human NCI-H1975 cells at 0.1 to 5 uM incubated for 2 hrs by immunoblotting analysis; type: cell-based; details: dose 0.1-5 µM
Ribosomal protein S6 kinase beta-1 (Homo sapiens), sequence (P23443 whole entry, looked up): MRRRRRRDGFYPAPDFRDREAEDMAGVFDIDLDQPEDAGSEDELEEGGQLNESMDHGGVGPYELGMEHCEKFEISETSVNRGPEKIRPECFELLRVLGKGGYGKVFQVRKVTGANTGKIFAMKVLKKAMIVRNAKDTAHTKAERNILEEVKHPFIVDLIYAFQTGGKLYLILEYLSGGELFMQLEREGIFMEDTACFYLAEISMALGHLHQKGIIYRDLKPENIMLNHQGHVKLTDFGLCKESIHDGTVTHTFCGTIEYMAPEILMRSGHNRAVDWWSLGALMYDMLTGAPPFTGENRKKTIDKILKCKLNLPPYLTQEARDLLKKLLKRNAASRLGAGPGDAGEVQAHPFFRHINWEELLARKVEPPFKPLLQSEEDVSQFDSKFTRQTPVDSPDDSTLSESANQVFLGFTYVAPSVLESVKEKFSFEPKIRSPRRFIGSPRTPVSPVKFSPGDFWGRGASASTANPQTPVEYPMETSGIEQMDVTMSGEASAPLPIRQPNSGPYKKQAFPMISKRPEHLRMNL

HCC827 [26] = assay: Inhibition of AKT phosphorylation in human HCC827 cells at 0.1 to 5 uM incubated for 2 hrs by immunoblotting analysis; type: cell-based; details: dose 0.1-5 µM
[27] = target: Ribosomal protein S6 kinase beta-1 (Homo sapiens) (UniProt P23443); assay: Inhibition of P70S6K phosphorylation in human HCC827 cells at 0.1 to 5 uM incubated for 2 hrs by immunoblotting analysis; type: cell-based; details: dose 0.1-5 µM

SMILES	Activity (HCC827 [1])	IC50 (BEAS-2B)	IC50 (A549 [2])	IC50 (HCC827 [3])	Activity (A549 [4])	Activity (A549 [5])	Activity (A549 [6])	Activity (NCI-H1975 [7])	Activity (NCI-H1975 [8])	Activity (NCI-H1975 [9])	Activity (NCI-H1975 [10])	Activity (HCC827 [11])	Activity (HCC827 [12])	Activity (HCC827 [13])	Activity (HCC827 [14])	Activity (NCI-H1975 [15])	Activity (NCI-H1975 [16])	Activity (HCC827 [17])	Activity (HCC827 [18])	Activity (HCC827 [19])	other results
C=CC(=O)Nc1cccc(Oc2nc(Nc3ccc(N4CCN(C)CC4)c(F)c3)nc3[nH]ccc23)c1 [ABIVERTINIB]	73%	3680 nM	1920 nM	100 nM	30.03%	62.04%	8.97%	61.74%	79.06%	9.8%	11.14%	75.11%	11.63%	10.83%	8.82%	89%	8.3%	67.9%	30.3%	13.8%	Activity (HCC827 [20]): 1.5%; Activity (HCC827 [21]): 35.4%; inhibition [22]: Active; inhibition [23]: inactive; inhibition (NCI-H1975 [24]): Active; inhibition [25]: Active; inhibition (HCC827 [26]): Active; inhibition [27]: Active
C=CC(=O)Nc1cccc(Oc2nc(Nc3ccc(N4CCN(C)CC4)c([N+](=O)[O-])c3)nc3[nH]ccc23)c1	77.64%	3680 nM	2900 nM	110 nM	27.39%	70.46%	8.33%	64.89%	80.34%	10.03%	9.63%	77.19%	11.55%	4.36%	14.12%	85.3%	12.4%	68.2%	23.8%	10.9%	Activity (HCC827 [20]): 2.5%; Activity (HCC827 [21]): 30.3%; inhibition [22]: Active; inhibition [23]: inactive; inhibition (NCI-H1975 [24]): Active; inhibition [25]: Active; inhibition (HCC827 [26]): Active; inhibition [27]: Active
C=CC(=O)Nc1cccc(Oc2nc(Nc3ccc(N4CCN(C)CC4)c(N)c3)nc3[nH]ccc23)c1	72.43%	7800 nM	6070 nM	46 nM	29.06%	64.23%	9.7%	64.04%	80.62%	10.15%	9.23%	74.57%	7.18%	13.93%	7.95%	81.1%	16.1%	69.1%	23.6%	12.1%	Activity (HCC827 [20]): 2.1%; Activity (HCC827 [21]): 28.7%; inhibition [22]: Active; inhibition [23]: inactive; inhibition (NCI-H1975 [24]): Active; inhibition [25]: Active; inhibition (HCC827 [26]): Active; inhibition [27]: Active
